Results: US10391095B2, “DNA-PK inhibitors” (Vertex Pharmaceuticals Incorporated, priority 2012, dated 2019)

Biological target: DNA-PK (Homo sapiens, UniProt P78527)
Test: DNA-PK inhibition assay (radiometric, 33P-ATP)
Format: biochemical
Conditions: 100 μM ATP, competitive tight-binding fit
Method in brief: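 33P transfer from 100 µM ATP to a DNA-PK peptide (0.8 mg/mL) is measured after 45 min, using about 6 nM enzyme activated by 10 µg/mL sheared dsDNA (HEPES pH 7.5, MgCl2, DTT). Filter-bound counts fitted to a competitive tight-binding inhibition model give Ki.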

Ki, < 0.03 µM:
CNC(=O)c1ccnc2c([C@H](C)CNc3cc(-c4ccc(N5CCC(C(C)(C)O)CC5)nc4)ncn3)cccc12 [Compound 734]
CNC(=O)c1ccc([C@H](C)CNc2cc(-c3cnc4c(ccn4CC4CC4)c3)ncn2)c(OC)c1 [Compound 253]
CNC(=O)c1ccnc2c([C@H](C)CNc3cc(-c4ccc(C5(N)CC5)nc4)ncn3)cccc12 [Compound 939]
CNC(=O)c1ccnc2c([C@H](C)CNc3cc(-c4cnc(NC)nc4)ncn3)ccc(F)c12 [Compound 623]
C[C@H](CNc1cc(-c2cc(C(F)(F)F)c3ncccc3c2)ncn1)c1ccnc2c1OCC2 [Compound 591]
CCNc1ncc(-c2cc(NC[C@@H](C)c3ccc(F)c4c(C(=O)NC)ccnc34)ncn2)cn1 [Compound 931]
COc1cc(N)ncc1C(C)CNc1cc(-c2ccc(N3CCN(C(C)=O)CC3)nc2)ncn1 (stereo not drawn) [Compound 345]
CNC(=O)c1ccnc2c([C@H](C)CNc3cc(-c4cnc(COC)nc4)ncn3)cccc12 [Compound 886]
C[C@H](CNc1cc(-c2cnc3c(ccn3C3COC3)c2)ncn1)c1ccnc2c1OCCO2 [Compound 536]
CCNc1ccc(-c2cc(NC[C@@H](C)c3ccc(F)c4c(C(=O)NC)ccnc34)ncn2)cn1 [Compound 922]
CNC(=O)c1ccc(C(C)CNc2cc(-c3cc4cnn(C5COC5)c4cc3C)ncn2)c(OC)c1 (stereo not drawn) [Compound 283]
CNC(=O)c1ccnc2c([C@H](C)CNc3cc(-c4cnc5c(c4)COC5)ncn3)cccc12 [Compound 952]
Cc1ccc(-c2cc(NCC(C)c3ccnc4c3OCCN4)ncn2)cn1 (stereo not drawn) [Compound 648]
CCOc1cc(F)ccc1C(C)CNc1cc(-c2ccc(C)nc2)ncn1 (stereo not drawn) [Compound 100]
CNc1ncc(-c2cc(NC[C@@H](C)c3ccnc4cccnc34)ncn2)cn1 [Compound 497]
CNC(=O)c1c(F)cnc2c([C@H](C)CNc3cc(-c4cnnc(C)c4)ncn3)cccc12 [Compound 968]
CNCCCNc1ccc(-c2cc(NC[C@@H](C)c3ccccc3OC)ncn2)cn1 [Compound 201]
CC(CNc1cc(-c2cnc3c(cnn3CCO)c2)ncn1)c1ccc(F)cc1OC1CC1 (stereo not drawn) [Compound 275]
CNC(=O)c1ccnc2c([C@H](C)CNc3cc(-c4ccc([S+](C)[O-])cc4)ncn3)cccc12 (stereo partly drawn) [Compound 677]
C[C@H](CNc1cc(-c2cnc(NCCO)nc2)ncn1)c1ccnc2c1OCCO2 [Compound 457]
CNC(=O)c1ccnc2c([C@H](C)CNc3cc(-c4cnc(N5CCN(CC(F)F)CC5)nc4)ncn3)cccc12 [Compound 757]
CC(=O)Nc1cnc2c([C@H](C)CNc3cc(-c4ccc(C)nc4)ncn3)cccc2c1 [Compound 742]
CNC(=O)c1ccnc2c([C@H](C)CNc3cc(-c4cnc5c(cnn5CCO)c4)ncn3)cccc12 [Compound 580]
CC(CNc1cc(-c2ccc(N3CCN(C)CC3)nc2)ncn1)c1cnccc1OC1CC1 (stereo not drawn) [Compound 177]
COc1ccccc1CCNc1cc(-c2cnc3c(cnn3CS(C)(=O)=O)c2)ncn1 [Compound 97]
CCOc1ccc(-c2cc(NCC(C)c3ccc(C(=O)NC)cc3OC)ncn2)cn1 (stereo not drawn) [Compound 322]
CNC(=O)c1ccnc2c([C@H](C)CNc3cc(-c4cnc(OC)c(OC)c4)ncn3)cccc12 [Compound 592]
CCOc1cc(-c2cc(NC[C@@H](C)c3ccc(F)c4c(C(=O)NC)ccnc34)ncn2)cnc1OCC [Compound 905]
CNC(=O)c1ccc([C@H](C)CNc2cc(-c3ccc(NCCCOC)nc3)ncn2)c(OC)c1 [Compound 375]
COc1ccccc1CCNc1cc(-c2cnc3c(cnn3C3CCN(C)CC3)c2)ncn1 [Compound 82]
CNC(=O)c1ccnc2c([C@H](C)CNc3cc(-c4ccc(C)cc4)ncn3)cccc12 [Compound 671]
CNC(=O)c1ccnc2c([C@H](C)CNc3cc(-c4ccc5c(c4)CCN(C(C)=O)C5)ncn3)cccc12 [Compound 803]
CNC(=O)CNc1ccc(-c2cc(NC[C@@H](C)c3cccc4c(C(=O)NC)ccnc34)ncn2)cn1 [Compound 632]
CCCNc1ccc(-c2cc(NC[C@@H](C)c3ccc(C(=O)NC)cc3OC)ncn2)cn1 [Compound 361]
CNC(=O)c1c(N2CCOCC2)cnc2c([C@H](C)CNc3cc(-c4ccc(C)nc4)ncn3)cccc12 [Compound 767]
CCOc1cc(F)ccc1[C@H](C)CNc1cc(-c2ccc(C)nc2)ncn1 [Compound 103]
CCOc1ccccc1C(C)CNc1cc(-c2ccc(C)nc2)ncn1 (stereo not drawn) [Compound 91]
COc1ccc(C(C)CNc2cc(-c3ccc(C)nc3)ncn2)c(OC)n1 (stereo not drawn) [Compound 466]
Cc1ccc(-c2cc(NC[C@@H](C)c3cccc4c3OCC4)ncn2)cn1 [Compound 134]
COc1ccccc1CCNc1cc(-c2cnc3c(cnn3CCC(C)C)c2)ncn1 [Compound 45]
CC(CNc1cc(-c2cnc3[nH]ncc3c2)ncn1)c1ccccc1OC1COC1 (stereo not drawn) [Compound 214]
CNC(=O)c1ccc([C@H](C)CNc2cc(-c3ccc(C(=O)N4CCN(C)CC4)cc3)ncn2)c(OC)c1 [Compound 309]
COc1cc(C(=O)Nc2ccccc2)ccc1C(C)CNc1cc(-c2ccc(C)nc2)ncn1 (stereo not drawn) [Compound 377]
CNC(=O)c1ccnc2c([C@H](C)CNc3cc(-c4ccc(C(C)C)nc4)ncn3)cccc12 [Compound 848]
CCOc1cc(-c2cc(NC[C@@H](C)c3cccc4c(C(=O)NC)c(F)cnc34)ncn2)cnc1OCC [Compound 897]
CNC(=O)c1ccnc2c([C@H](C)CNc3cc(-c4ccc(OC5COC5)cc4)ncn3)cccc12 [Compound 748]
COc1cc(SC)ccc1C(C)CNc1cc(-c2ccc(N3CCN(C(C)=O)CC3)nc2)ncn1 (stereo not drawn) [Compound 73]
CNC(=O)c1ccnc2c([C@H](C)CNc3cc(-c4cnc5c(c4)OCCO5)ncn3)ccc(F)c12 [Compound 936]
CNC(=O)c1ccc(-c2cc(NC[C@@H](C)c3cccc4c(C(=O)NC)ccnc34)ncn2)cc1 [Compound 754]
COc1sccc1C(C)CNc1cc(-c2cnc3c(cnn3CC3CC3)c2)ncn1 (stereo not drawn) [Compound 266]
CNC(=O)c1ccnc2c([C@H](C)CNc3cc(-c4cnc(OC)c(Cl)c4)ncn3)cccc12 [Compound 949]
CNC(=O)c1ccnc2c([C@H](C)CNc3cc(-c4cnc(C(C)(C)O)c(F)c4)ncn3)cccc12 [Compound 822]
CNC(=O)c1ccnc2c([C@H](C)CNc3cc(-c4ccc(C(F)(F)F)nc4)ncn3)cccc12 [Compound 649]
COCCn1ncc2cc(-c3cc(NCC(C)c4cscc4OC)ncn3)cnc21 (stereo not drawn) [Compound 227]
CC(=O)N1CCN(c2ccc(-c3cc(NCC(C)c4ccccc4OCc4ccccc4)ncn3)cn2)CC1 (stereo not drawn) [Compound 135]
CNC(=O)c1ccc(C(C)CNc2cc(-c3cnc4c(cnn4C4CCN(C)CC4)c3)ncn2)c(OC)c1 (stereo not drawn) [Compound 155]
CC(=O)N1CCN(c2ccc(-c3cc(NCC(C)c4ccccc4O)ncn3)cn2)CC1 (stereo not drawn) [Compound 136]
CNC(=O)c1ccnc2c([C@H](C)CNc3cc(-c4ccc(N5CCN6C(=O)OCC6C5)nc4)ncn3)cccc12 (single isomer, unassigned) [Compound 731]
COc1ccccc1[C@H](C)CNc1cc(-c2ccc(Nc3nn[nH]n3)nc2)ncn1 [Compound 203]
CNC(=O)c1ccnc2c([C@H](C)CNc3cc(-c4ccc5c(c4)CNCC5)ncn3)cccc12 [Compound 801]
Cc1ccc(-c2cc(NCC(C)c3cncc4c3OCCC4)ncn2)cn1 (stereo not drawn) [Compound 451]
CNC(=O)c1ccnc2c([C@H](C)CNc3cc(-c4cnc(C(F)(F)F)nc4)ncn3)cccc12 [Compound 957]
CNC(=O)c1ccnc2c([C@H](C)CNc3cc(-c4cnc(CN(C)C)nc4)ncn3)cccc12 [Compound 885]
CNC(=O)c1ccnc2c([C@H](C)CNc3cc(-c4cnc(C5CCC5)nc4)ncn3)cccc12 [Compound 846]
CCNc1ccc(-c2cc(NC[C@@H](C)c3ccnc4c3OCC4)ncn2)cn1 [Compound 486]
CNC(=O)c1c(F)cnc2c([C@H](C)CNc3cc(-c4cnc(C)nc4)ncn3)ccc(F)c12 [Compound 645]
CNC(=O)c1ccnc2c([C@H](C)CNc3cc(-c4ccc(O)nc4)ncn3)cccc12 [Compound 799]
CCN(C)c1ccc(-c2cc(NC[C@@H](C)c3ccc(C(=O)NC)cc3OC)ncn2)cn1 [Compound 362]
CNC(=O)c1ccnc2c([C@H](C)CNc3cc(-c4cnc(C)c(C)c4)ncn3)cccc12 [Compound 870]
